pIC50: −log10 of the molar value. Where a SMILES comes first, the peptide text is derived from it.

From ChEMBL document CHEMBL4417631, “Oral peptide inhibitors of interleukin-23 receptor and their use to treat inflammatory bowel diseases” (2017) come the findings set out here.

The target of this assay is T1, Interleukin-23 receptor (Homo sapiens, UniProt Q5VWK5).
T1 sequence (Q5VWK5 whole entry): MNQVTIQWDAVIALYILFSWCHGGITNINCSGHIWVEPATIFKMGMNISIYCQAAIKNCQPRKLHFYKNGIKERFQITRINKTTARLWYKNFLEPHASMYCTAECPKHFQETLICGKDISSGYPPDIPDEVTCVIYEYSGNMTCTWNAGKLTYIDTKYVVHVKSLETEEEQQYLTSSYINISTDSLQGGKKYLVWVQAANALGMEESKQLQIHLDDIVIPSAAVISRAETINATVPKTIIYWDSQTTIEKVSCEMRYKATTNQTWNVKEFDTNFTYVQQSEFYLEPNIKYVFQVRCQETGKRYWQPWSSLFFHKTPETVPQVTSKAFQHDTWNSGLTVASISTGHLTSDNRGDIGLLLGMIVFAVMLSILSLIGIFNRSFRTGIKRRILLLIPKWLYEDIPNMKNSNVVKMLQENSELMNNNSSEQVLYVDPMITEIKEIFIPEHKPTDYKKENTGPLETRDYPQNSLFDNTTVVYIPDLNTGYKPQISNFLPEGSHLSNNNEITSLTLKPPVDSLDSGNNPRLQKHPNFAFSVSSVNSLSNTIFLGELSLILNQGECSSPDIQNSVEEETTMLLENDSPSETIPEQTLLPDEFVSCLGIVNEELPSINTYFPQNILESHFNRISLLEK
Nature of the assay: Inhibition of interleukin-23 binding to human interleukin-23 receptor incubated for 2 hrs by competitive binding ELISA. Background: An ELISA detects its analyte on a solid surface through an enzyme-linked reagent.

Take `CC(=O)N[C@@H](CS)C(=O)N[C@@H](C)C(=O)N[C@@H](CC(=O)O)C(=O)N[C@@H](Cc1c[nH]c2ccccc12)C(=O)N[C@H](C(=O)N[C@@H](CS)C(=O)N[C@@H](Cc1ccc(O)cc1)C(=O)N[C@@H](Cc1c[nH]c2ccccc12)C(=O)N[C@@H](Cc1cnc[nH]1)C(=O)N[C@H](C(=O)N[C@@H](Cc1ccccc1)C(=O)NCC(N)=O)[C@@H](C)O)C(C)C`: the pIC50 is under 6.00.
Regarding `CC1CSC[C@@H](C(=O)N[C@@H](Cc2ccc(O)cc2)C(=O)N[C@@H](Cc2c[nH]c3ccccc23)C(=O)N[C@@H](CCCNC(=N)N)C(=O)N[C@@H](CCC(=O)O)C(=O)N[C@@H](CC(N)=O)C(=O)NCC(=O)NCCOCC(=O)N[C@H](CCCCN)C(N)=O)NC(=O)[C@H](CCC(N)=O)NC(=O)[C@H](Cc2c[nH]c3ccccc23)NC(=O)[C@H](CC(=O)O)NC(=O)[C@H](CCC(N)=O)NC1=O` (stereo not given in full), the pIC50 was 5.22.
In the case of `CC(=O)N[C@@H](CS)C(=O)N[C@@H](CCC(N)=O)C(=O)N[C@H](C(=O)N[C@@H](Cc1c[nH]c2ccccc12)C(=O)N[C@@H](CCC(N)=O)C(=O)N[C@@H](CS)C(=O)N[C@@H](CC1CCCCC1)C(=O)N[C@@H](Cc1c[nH]c2ccccc12)C(=O)N[C@@H](CCC(C)C)C(=O)N[C@@H](CCC(=O)O)C(=O)N[C@@H](CC(N)=O)C(=O)NCC(N)=O)[C@@H](C)O` it was 5.22.
With `CC(=O)N[C@@H](CS)C(=O)N[C@@H](C)C(=O)N[C@@H](CC(=O)O)C(=O)N[C@@H](Cc1c[nH]c2ccccc12)C(=O)N[C@H](C(=O)N[C@@H](CS)C(=O)N[C@@H](Cc1ccc(O)cc1)C(=O)N[C@@H](Cc1ccc(-c2ccccc2)cc1)C(=O)N[C@@H](CCCN)C(=O)N[C@@H](CN)C(=O)N[C@@H](Cc1ccccc1)C(=O)NCC(=O)NCCOCC(=O)N[C@H](CCCCN)C(N)=O)C(C)C`, the pIC50 was under 4.52.
In the case of `CC(=O)N[C@@H](CS)C(=O)N[C@@H](C)C(=O)N[C@@H](CC(=O)O)C(=O)N[C@@H](Cc1c[nH]c2ccccc12)C(=O)N[C@H](C(=O)N[C@@H](CS)C(=O)N[C@@H](Cc1ccc(O)cc1)C(=O)N[C@@H](Cc1c[nH]c2ccccc12)C(=O)N[C@@H](Cc1cnc[nH]1)C(=O)N[C@@H](Cc1ccccc1)C(=O)N[C@@H](Cc1cnc[nH]1)C(=O)N[C@@H](CCC(N)=O)C(=O)N[C@@H](CC(C)C)C(=O)N[C@@H](CCCNC(=N)N)C(=O)N[C@@H](CC(=O)O)C(=O)N[C@@H](C)C(N)=O)C(C)C` (Ac-CADWVCYWHFHQLRDA-NH2) it was 6.00 to 6.30; in that of `CC(=O)N[C@@H](CS)C(=O)N[C@@H](C)C(=O)N[C@@H](CC(=O)O)C(=O)N[C@@H](Cc1c[nH]c2ccccc12)C(=O)N[C@H](C(=O)N[C@@H](CS)C(=O)N[C@@H](Cc1ccc(O)cc1)C(=O)N[C@@H](Cc1cccc2ccccc12)C(=O)N[C@@H](Cc1cnc[nH]1)C(=O)NCCC(=O)N[C@@H](Cc1ccccc1)C(=O)NCC(N)=O)C(C)C`, under 6.00.
`CC(=O)N[C@H]1CCSC[C@@H](C(=O)N[C@@H](Cc2ccc(OCCN)cc2)C(=O)N[C@@H](Cc2ccc3ccccc3c2)C(=O)N[C@@](C)(CCCCN)C(=O)N[C@@H](CCC(=O)O)C(=O)N[C@@H](CC(N)=O)C(=O)NCC(N)=O)NC(=O)[C@H](CCC(N)=O)NC(=O)[C@H](c2ccc(Cl)c(Cl)c2)NC(=O)[C@H]([C@@H](C)O)NC(=O)[C@H](CCC(N)=O)NC1=O` gave a pIC50 of under 5.52.
The result for `CC(=O)N[C@@H](CS)C(=O)N[C@@H](C)C(=O)N[C@@H](CC(=O)O)C(=O)N[C@@H](Cc1c[nH]c2ccccc12)C(=O)N[C@H](C(=O)N[C@@H](CS)C(=O)N[C@@H](Cc1ccc(O)cc1)C(=O)N[C@@H](Cc1cccc2ccccc12)C(=O)N[C@@H](Cc1cnc[nH]1)C(=O)NC(C)(C)C(=O)N[C@@H](Cc1ccccc1)C(=O)NCC(N)=O)C(C)C` reads under 6.00.
In turn, `CC(=O)N[C@@H](CS)C(=O)N[C@@H](CCC(N)=O)C(=O)N[C@H](C(=O)N[C@@H](Cc1c[nH]c2ccccc12)C(=O)N[C@@H](CCC(N)=O)C(=O)N[C@@H](CS)C(=O)N[C@@H](Cc1ccc(O)cc1)C(=O)N[C@@H](Cc1c[nH]c2ccccc12)C(=O)N[C@@H](CCCNC(=N)N)C(=O)N[C@H](CCC(=O)O)C(=O)N[C@@H](CC(N)=O)C(=O)NCC(=O)NCCOCC(=O)N[C@H](CCCCN)C(N)=O)[C@@H](C)O` gave a pIC50 of under 6.00.
For `CC(=O)N[C@@H](CS)C(=O)N[C@@H](CCC(N)=O)C(=O)N[C@H](C(=O)N[C@@H](Cc1c[nH]c2ccccc12)C(=O)N[C@@H](CCC(N)=O)C(=O)N[C@@H](CS)C(=O)N[C@H](C(=O)N[C@@H](Cc1c[nH]c2ccccc12)C(=O)N[C@@H](CCC(C)C)C(=O)N[C@@H](CCC(=O)O)C(=O)N[C@@H](CC(N)=O)C(=O)NCC(N)=O)[C@@H](C)O)[C@@H](C)O`, the pIC50 is under 4.52.
With `CC(=O)N[C@@H](CS)C(=O)N[C@@H](C)C(=O)N[C@@H](CC(=O)O)C(=O)N[C@@H](Cc1c[nH]c2ccccc12)C(=O)N[C@H](C(=O)N[C@@H](CS)C(=O)N[C@@H](Cc1ccc(O)cc1)C(=O)N[C@@H](Cc1c[nH]c2ccccc12)C(=O)N[C@@H](Cc1cnc[nH]1)C(=O)N[C@@H](CCCCNC(=O)COCC(=O)NCCCC[C@H](NC(=O)[C@H](Cc1cnc[nH]1)NC(=O)[C@H](Cc1c[nH]c2ccccc12)NC(=O)[C@H](Cc1ccc(O)cc1)NC(=O)[C@H](CS)NC(=O)[C@@H](NC(=O)[C@H](Cc1c[nH]c2ccccc12)NC(=O)[C@H](CC(=O)O)NC(=O)[C@H](C)NC(=O)[C@H](CS)NC(C)=O)C(C)C)C(=O)N[C@@H](Cc1ccccc1)C(=O)NCC(=O)O)C(=O)N[C@@H](Cc1ccccc1)C(=O)NCC(=O)O)C(C)C`, the pIC50 was under 5.00.
The result for `CC(=O)N[C@@H](CS)C(=O)N[C@@H](CCC(N)=O)C(=O)N[C@H](C(=O)N[C@@H](Cc1c[nH]c2ccccc12)C(=O)N[C@@H](CCC(N)=O)C(=O)N[C@@H](CS)C(=O)N[C@@H](Cc1ccc(O)cc1)C(=O)N[C@@H](Cc1c[nH]c2ccccc12)C(=O)N[C@@H](CC(C)C)C(=O)N[C@@H](CCC(=O)O)C(=O)N[C@@H](CC(N)=O)C(=O)NCC(N)=O)[C@@H](C)O` reads over 6.30; that for `CC(=O)N[C@@H](CS)C(=O)N[C@@H](CCC(N)=O)C(=O)N[C@H](C(=O)N[C@@H](Cc1c[nH]c2ccccc12)C(=O)N[C@@H](CCC(N)=O)C(=O)N[C@@H](CS)C(=O)N[C@@H](Cc1ccc(O)cc1)C(=O)N[C@H](CC(=O)N[C@@H](CCCNC(=N)N)C(=O)N[C@H](C(=O)N[C@@H](CC(N)=O)C(=O)NCC(=O)NCCOCC(=O)N[C@H](CCCCN)C(N)=O)C(C)C)Cc1ccc(F)cc1)[C@@H](C)O`, under 4.52; that for `CC(=O)N[C@@H](CS)C(=O)N[C@@H](C)C(=O)N[C@@H](CC(=O)O)C(=O)N[C@@H](Cc1c[nH]c2ccccc12)C(=O)N[C@H](C(=O)N[C@@H](CS)C(=O)N[C@@H](Cc1ccc(O)cc1)C(=O)N[C@@H](Cc1c[nH]c2ccccc12)C(=O)N[C@@H](Cc1cnc[nH]1)C(=O)N[C@H](C(=O)N[C@@H](Cc1ccccc1)C(=O)NCC(=O)NCCOCCC(=O)N[C@@H](CCCCN)C(=O)O)[C@@H](C)O)C(C)C`, over 6.30.
`CC(=O)N[C@@H](CS)C(=O)N[C@@H](CCC(N)=O)C(=O)N[C@H](C(=O)N[C@@H](Cc1c[nH]c2ccccc12)C(=O)N[C@@H](CCC(N)=O)C(=O)N[C@@H](CS)C(=O)N[C@@H](CCc1ccc(O)cc1)C(=O)N[C@@H](Cc1c[nH]c2ccccc12)C(=O)N[C@@H](CCC(C)C)C(=O)N[C@@H](CCC(=O)O)C(=O)N[C@@H](CC(N)=O)C(=O)NCC(N)=O)[C@@H](C)O`: the pIC50 is 5.22.
In the case of `CC(=O)NCC(=O)N[C@H](CC(N)=O)C(=O)N[C@H](CCC(=O)O)C(=O)N[C@H](CC(C)C)C(=O)N[C@H](Cc1c[nH]c2ccccc12)C(=O)N[C@H](Cc1ccc(O)cc1)C(=O)N[C@H](CS)C(=O)N[C@H](CCC(N)=O)C(=O)N[C@H](Cc1c[nH]c2ccccc12)C(=O)N[C@@H](C(=O)N[C@H](CCC(N)=O)C(=O)N[C@H](CS)C(N)=O)[C@H](C)O` it was under 4.52.
The result for `C[C@H](N)C(=O)N[C@@H](C)C(=O)N[C@@H](CC(=O)O)C(=O)N[C@@H](Cc1c[nH]c2ccccc12)C(=O)N[C@@H](CS)C(=O)N[C@@H](C)C(=O)N[C@@H](Cc1ccc(O)cc1)C(=O)N[C@@H](Cc1c[nH]c2ccccc12)C(=O)N[C@@H](CS)C(=O)N[C@H](C(=O)N[C@@H](Cc1ccccc1)C(=O)NCC(N)=O)[C@@H](C)O` (H-AADWCAYWCTFG-NH2) reads under 6.00; that for `CC(C)[C@H](NC(=O)[C@H](Cc1cccc2ccccc12)NC(=O)[C@H](CC(=O)O)NC(=O)[C@H](C)NC(=O)[C@@H](N)CS)C(=O)N[C@@H](CS)C(=O)N[C@@H](Cc1ccc(O)cc1)C(=O)N[C@@H](Cc1c[nH]c2ccccc12)C(=O)N[C@@H](Cc1cnc[nH]1)C(=O)N[C@H](C(=O)N[C@@H](Cc1ccccc1)C(=O)NCC(N)=O)[C@@H](C)O`, under 6.00; that for `C[C@@H](O)[C@H](NC(=O)[C@@H](NC(=O)[C@@H](N)CS)[C@@H](C)O)C(=O)N[C@@H](Cc1c[nH]c2ccccc12)C(=O)N[C@@H](CCCCN)C(=O)N[C@@H](CS)C(=O)N[C@@H](Cc1ccc(O)cc1)C(=O)N[C@@H](Cc1c[nH]c2ccccc12)C(=O)N[C@@H](Cc1cnc[nH]1)C(=O)N[C@@H](CCC(N)=O)C(=O)N[C@@H](Cc1ccc(O)cc1)C(=O)NCC(N)=O` (H-CTTWKCYWHQYG-NH2), 6.00 to 6.30.
In the case of `CC(=O)NC1CCC/C=C\CCC(C(=O)N[C@@H](Cc2ccc(O)cc2)C(=O)N[C@@H](Cc2c[nH]c3ccccc23)C(=O)N[C@@H](CCCNC(=N)N)C(=O)N[C@@H](CCCCN)C(=O)N[C@@H](Cc2ccccc2)C(=O)NCC(=O)NCCOCC(=O)N[C@H](CCCCN)C(N)=O)NC(=O)[C@H](CCC(N)=O)NC(=O)[C@H](Cc2c[nH]c3ccccc23)NC(=O)[C@H]([C@@H](C)O)NC(=O)[C@H](CCCNC(=N)N)NC1=O` (stereo not given in full) it was 5.00 to 6.00.

The term pIC50 denotes −log10 of the IC50, conventionally taken in molar units. The low end stands for a high IC50, the high end for a low IC50.
